# Earlier results, collected in patent publication US20050221324A1, “Genotoxicity analysis” (priority 2002, published 2005).
# Tested on: AL cells
# Settings: producing mainly chromosomal mutations; non-genotoxic carcinogens
substance,measurement,value
arsenic,mutagenicity in AL cells,quite strong mutagens
